Measured values: publication PMC5377010 (International Journal for Parasitology: Drugs and Drug …, 2017)
Values belong to the molecule of their own block, whether it stands above or below them.

What was measured:
[1] = molecular target: T1, Thioredoxin Reductase (gTrxR) (Giardia duodenalis, UniProt E2RU27); assay: intrinsic protein fluorescence quenching; assay type: binding
T1 sequence (E2RU27 1-314): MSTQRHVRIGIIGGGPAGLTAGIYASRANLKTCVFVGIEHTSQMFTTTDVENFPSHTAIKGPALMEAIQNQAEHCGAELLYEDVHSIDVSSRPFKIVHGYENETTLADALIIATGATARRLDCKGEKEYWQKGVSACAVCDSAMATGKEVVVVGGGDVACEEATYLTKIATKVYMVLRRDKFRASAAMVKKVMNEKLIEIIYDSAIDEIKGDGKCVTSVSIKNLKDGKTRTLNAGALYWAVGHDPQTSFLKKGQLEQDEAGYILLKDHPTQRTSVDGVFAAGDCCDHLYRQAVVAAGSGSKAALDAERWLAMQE

[2] = molecular target: T2, Elongation Factor 1Bγ (gEF1Bγ) (Giardia duodenalis, UniProt A8BFR0); assay: intrinsic protein fluorescence quenching; assay type: binding
T2 sequence (A8BFR0 1-402): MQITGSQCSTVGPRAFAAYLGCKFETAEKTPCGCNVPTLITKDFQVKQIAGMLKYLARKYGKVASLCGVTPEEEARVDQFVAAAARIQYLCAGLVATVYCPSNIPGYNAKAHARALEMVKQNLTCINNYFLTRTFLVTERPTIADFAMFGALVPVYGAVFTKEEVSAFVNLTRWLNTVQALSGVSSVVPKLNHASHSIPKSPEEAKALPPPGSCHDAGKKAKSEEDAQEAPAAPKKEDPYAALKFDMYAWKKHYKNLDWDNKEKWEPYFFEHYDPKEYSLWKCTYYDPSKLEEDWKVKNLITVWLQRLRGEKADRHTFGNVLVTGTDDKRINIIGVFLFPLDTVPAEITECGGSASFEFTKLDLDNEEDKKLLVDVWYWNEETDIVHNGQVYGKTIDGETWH

purified protein [3] = substrate: NC(=O)C1=CN([C@@H]2O[C@H](COP(=O)(O)OP(=O)(O)OC[C@H]3O[C@@H](n4cnc5c(N)ncnc54)[C@H](OP(=O)(O)O)[C@@H]3O)[C@@H](O)[C@H]2O)C=CC1; assay: purified protein; details: FAD NADPH-binding domain
purified protein [4] = substrate: O=C(O)c1cc(SSc2ccc([N+](=O)[O-])c(C(=O)O)c2)ccc1[N+](=O)[O-]; assay: purified protein; details: FAD; NADPH site partially overlapping that of NBDHEX

Kd [1]: 140 ± 50 nM
Kd [2]: < 400 nM
Molecule: O=[N+]([O-])c1ccc(SCCCCCCO)c2nonc12 [NBDHEX, 6-(7-nitro-2,1,3-benzoxadiazol-4-ylthio)hexanol]

B1: Thioredoxin Reductase (gTrxR) (Giardia lamblia ATCC 50803) (protein)
chain: T1 sequence (E2RU27 1-314)
Km (purified protein [3]): 2.6 ± 0.6 µM
Km (purified protein [4]): 1500 ± 100 µM
